Patent US9809521B2, “Cannabidinoid derivatives” (priority 2011, dated 2017)

System: U251 cells
Assay: Apoptosis (annexin staining, FACS)
Format: cell-based, human
Experimental: Apoptosis: Cells were grown in 6 well culture dishes and were treated with compounds of the disclosure every 24 hours for three days. […] The labeled cells were analyzed by flow cytometry. Cell Flow Cytometry in combination with PI and annexin staining was used to quantify the percentage of cells undergoing apoptosis in control and treatment groups. Percent control was calculated as annexin positive staining in treated cells/control cells×100. PI staining was used to distinguish necrotic cells from those undergoing apoptosis.
Albeit, the magnitude of these effects was reduced compared to those observed with the combination treatment.
The concentrations of the individual cannabinoids (THC and CBD) were next increased in order to attempt to match levels of apoptosis produced by the combination treatment. The purpose of these experiments was to determine whether the compounds alone recruited similar pathways as compared to the combination of THC and CBD. […] However, THC alone could not produce the level of apoptosis observed with the combination treatment (FIG. 23, panel A and B).

Structure (SMILES): C=C(C)[C@@H]1CCC(C)=C[C@H]1c1c(O)cc(CCCCC)cc1O [CBD, cannabidiol]
- block of apoptosis by CB2 antagonist SR144528 (0.5 μM SR144528, combination 1.7/0.4 μM, 2.5 μM THC, 2.0 μM CBD): no reversal was observed with SR144528
- block of apoptosis by α-tocopherol (20 μM α-tocopherol, combination 1.7/0.4 μM, 2.5 μM THC, 2.0 μM CBD): completely blocked by α-tocopherol
- apoptosis (annexin) (THC 1.7 μM, CBD 0.4 μM, three days): did not produce significant changes in apoptosis
